From patent US20130018033A1, “RAF INHIBITOR COMPOUNDS AND METHODS OF USE THEREOF” (ARRAY BIOPHARMA INC., priority 2009, published 2013)
Read-outs that look alike come from different tables or passages of the source.

Legend:
V600E full-length B-Raf = target: T1, V600E full-length B-Raf (Homo sapiens, UniProt P15056, V600E); experiment: B-Raf IC50 assay (Example A); assay type: biochemical
T1 construct: 1 μM FSBA-MEK and 20 nM V600E full-length B-Raf; made in house; host or cells: Sf9 insect cells (baculovirus)
Method in brief: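 Sf9-expressed full-length V600E B-Raf (20 nM) phosphorylated 1 µM FSBA-modified wild-type MEK with 4 µM ATP plus [γ-33P]ATP in 25 mM Pipes pH 7.2, 100 mM KCl, 10 mM MgCl2. Enzyme and substrate were preincubated 15 min, and the reaction ran 60 min at 22 °C. It was TCA-quenched and filter-captured, and incorporated radioactivity was scintillation-counted.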

[1] = system: basal ERK1/2 phosphorylation in Malme-3M cells; experiment: Cellular ERK 1/2 phosphorylation assay (Example A1); assay type: cell-based; details: Homo sapiens, 1 hour incubation, pERK normalized to total ERK, read-out: P-ERK Malme3-M IC50
Method in brief: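 Malme-3M cells (24,000/well, RPMI-1640 with 10% FBS) were treated with compounds for 1 h at 37 °C, 1% DMSO final. Fixed, methanol-permeabilized cells were immunostained for pERK and total ERK and read by infrared fluorescence. pERK signal was normalized to total ERK.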

[2] = system: subcutaneous LOX xenografts; experiment: Tumor growth inhibition (LOX), Example A2; assay type: in vivo; details: female nude mice, LOX xenograft; for Tumor Volume (mm^3) Day 1: 10 mg/kg PO on days 1-4, Day 1; for Tumor Volume (mm^3) Day 3: 10 mg/kg PO on days 1-4, Day 3; for Tumor Volume (mm^3) Day 5: 10 mg/kg PO on days 1-4, Day 5
Description: (§1) Female nude mice were implanted subcutaneously on the right flank with approximately 3.5×10^6 LOX cells in 100 μL PBS. Five to seven days later, tumors were measured and mice were randomized into groups of six with average tumor volume in each group of approximately 200 mm^3. Examples 3 and 28 were dissolved in 80% PEG400/20% ethanol before dosing, and administered PO at a volume of 5 mL/kg. Dosing was vehicle alone on days 1, 2, 3 and 4; and Examples 3 and 28 at 10 mg/kg on days 1, 2, 3 and 4. Animal weights and tumor volumes were measured using electronic calipers on day 5. Tumor volume was calculated using the formula: volume=(width2×length)/2.

[3] = system: subcutaneous LOX xenografts; experiment: Tumor growth inhibition (LOX), Example A3; assay type: in vivo; details: female nude mice, LOX xenograft
Description: as §1, with “mm^3. Example 23 was” for “mm^3. Examples 3 and 28 were”, “and Example 23” for “and Examples 3 and 28”, “at 5” for “at 10”, “formula: volume=(width^2×length)/2.” for “formula: volume=(width2×length)/2.”

[4] = B-Raf V600E assay of Example A, read-out: IC50
[5] = [γ-33P]ATP incorporation into FSBA-MEK, 4 μM ATP, read-out: BRAF V600E IC50

T1 sequence (P15056 whole entry V600E): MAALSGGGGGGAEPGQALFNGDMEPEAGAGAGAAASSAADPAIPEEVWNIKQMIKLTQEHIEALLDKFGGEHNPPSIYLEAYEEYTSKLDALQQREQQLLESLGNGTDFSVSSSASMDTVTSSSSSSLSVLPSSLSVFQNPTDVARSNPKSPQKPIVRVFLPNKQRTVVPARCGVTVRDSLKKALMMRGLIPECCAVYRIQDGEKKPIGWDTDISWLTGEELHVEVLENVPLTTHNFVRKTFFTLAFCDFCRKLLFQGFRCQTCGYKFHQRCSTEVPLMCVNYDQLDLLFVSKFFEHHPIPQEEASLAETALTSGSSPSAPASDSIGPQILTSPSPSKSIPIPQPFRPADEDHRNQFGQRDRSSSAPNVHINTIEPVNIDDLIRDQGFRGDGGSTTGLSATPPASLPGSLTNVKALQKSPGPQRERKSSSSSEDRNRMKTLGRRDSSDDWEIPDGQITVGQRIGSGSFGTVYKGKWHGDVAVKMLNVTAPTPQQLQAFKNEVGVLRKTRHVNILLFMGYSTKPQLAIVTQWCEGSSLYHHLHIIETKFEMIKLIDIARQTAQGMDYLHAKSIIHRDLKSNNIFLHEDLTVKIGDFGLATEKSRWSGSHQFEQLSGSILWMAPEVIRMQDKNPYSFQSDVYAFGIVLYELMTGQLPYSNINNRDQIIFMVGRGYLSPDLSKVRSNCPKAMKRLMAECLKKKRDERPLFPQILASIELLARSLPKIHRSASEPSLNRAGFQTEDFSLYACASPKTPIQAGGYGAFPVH

| Compound | IC50 (V600E full-length B-Raf; [4]) | IC50 (V600E full-length B-Raf; [5]) | IC50 (V600E full-length B-Raf; BRAF V600E IC50 (μM), [γ-33P]ATP incorporation into FSBA-MEK, 4 μM ATP) | IC50 [1] | Tumor Volume (mm^3) Day 1 [2] | Tumor Volume (mm^3) Day 3 [2] | Tumor Volume (mm^3) Day 5 [2] | Tumor Volume (mm^3) Day 1 ([3]; 5 mg/kg PO on days 1-4, Day 1) | Tumor Volume (mm^3) Day 3 ([3]; 5 mg/kg PO on days 1-4, Day 3) | Tumor Volume (mm^3) Day 5 ([3]; 5 mg/kg PO on days 1-4, Day 5) |
| --- | --- | --- | --- | --- | --- | --- | --- | --- | --- | --- |
| CCCS(=O)(=O)Nc1ccc(F)c(NC(=O)c2cccc3c(N)ncnc23)c1Cl [Example 3, 4-Amino-quinazoline-8-carboxylic acid [2-chloro-6-fluoro-3-(propane-1-sulfonylamino)-phenyl]-amide] | < 0.1 µM | – | 0.00053 µM | 7.23 nM | 190.33 mm^3 | 151.33 mm^3 | 118.41 mm^3 | – | – | – |
| Nc1ncnc2c(C(=O)Nc3c(Cl)ccc(NS(=O)(=O)CCCF)c3F)ccnc12 [Example 67, 4-Amino-pyrido[3,2-d]pyrimidine-8-carboxylic acid [6-chloro-2-fluoro-3-(3-fluoro-propane-1-sulfonylamino)-phenyl]-amide] | < 0.1 µM | 0.00042 µM | – | 2.8 nM | – | – | – | – | – | – |
| NC(=O)c1ccc(NS(=O)(=O)CCCF)c(F)c1NC(=O)c1ccnc2c(N)ncnc12 [Example 68, 4-Amino-pyrido[3,2-d]pyrimidine-8-carboxylic acid [6-carbamoyl-2-fluoro-3-(3-fluoro-propane-1-sulfonylamino)-phenyl]-amide] | < 0.1 µM | 0.0145 µM | – | 124 nM | – | – | – | – | – | – |
| CCCS(=O)(=O)Nc1ccc(C#N)c(NC(=O)c2ccnc3c(N)ncnc23)c1F [Example 69, 4-Amino-pyrido[3,2-d]pyrimidine-8-carboxylic acid [6-cyano-2-fluoro-3-(propane-1-sulfonylamino)-phenyl]-amide] | < 0.1 µM | 0.0195 µM | – | 306 nM | – | – | – | – | – | – |
| CCCS(=O)(=O)Nc1ccc(F)c(NC(=O)c2cc(C)cc3c(N)ncnc23)c1F [Example 70, 4-Amino-6-methyl-quinazoline-8-carboxylic acid [2,6-difluoro-3-(propane-1-sulfonylamino)-phenyl]-amide] | < 0.1 µM | 0.0014 µM | – | 8.59 nM | – | – | – | – | – | – |
| CCCS(=O)(=O)Nc1ccc(F)c(NC(=O)c2cc(C)cc3c(N)ncnc23)c1Cl [Example 77, 4-Amino-6-methyl-quinazoline-8-carboxylic acid [2-chloro-6-fluoro-3-(propane-1-sulfonylamino)-phenyl]-amide] | < 0.1 µM | 0.00045 µM | – | 7.83 nM | – | – | – | – | – | – |
| CCCS(=O)(=O)Nc1ccc(F)c(NC(=O)c2cc(F)cc3c(N)ncnc23)c1Cl [Example 78, 4-Amino-6-fluoro-quinazoline-8-carboxylic acid [2-chloro-6-fluoro-3-(propane-1-sulfonylamino)-phenyl]-amide] | < 0.1 µM | 0.00049 µM | – | 15.7 nM | – | – | – | – | – | – |
| CCCS(=O)(=O)Nc1ccc(F)c(NC(=O)c2cc(C)cc3cncnc23)c1F [Example 79, 6-Methyl-quinazoline-8-carboxylic acid [2,6-difluoro-3-(propane-1-sulfonylamino)-phenyl]-amide] | < 0.1 µM | 0.0588 µM | – | 254 nM | – | – | – | – | – | – |

Continued, in another order:

| IC50 (V600E full-length B-Raf; [4]) | IC50 (V600E full-length B-Raf; [5]) | Compound | IC50 (V600E full-length B-Raf; BRAF V600E IC50 (μM), [γ-33P]ATP incorporation into FSBA-MEK, 4 μM ATP) | IC50 [1] | Tumor Volume (mm^3) Day 1 [2] | Tumor Volume (mm^3) Day 3 [2] | Tumor Volume (mm^3) Day 5 [2] | Tumor Volume (mm^3) Day 1 ([3]; 5 mg/kg PO on days 1-4, Day 1) | Tumor Volume (mm^3) Day 3 ([3]; 5 mg/kg PO on days 1-4, Day 3) | Tumor Volume (mm^3) Day 5 ([3]; 5 mg/kg PO on days 1-4, Day 5) |
| --- | --- | --- | --- | --- | --- | --- | --- | --- | --- | --- |
| < 0.1 µM | 0.00028 µM | Nc1ncnc2c(C(=O)Nc3c(F)ccc(NS(=O)(=O)CCCF)c3F)cccc12 [Example 23, 4-Amino-quinazoline-8-carboxylic acid [2,6-difluoro-3-(3-fluoro-propane-1-sulfonylamino)-phenyl]-amide] | – | 3.89 nM | – | – | – | 221.32 mm^3 | 280.81 mm^3 | 157.52 mm^3 |
| < 0.1 µM | 0.00011 µM | CCCS(=O)(=O)Nc1ccc(F)c(NC(=O)c2cccc3c(N)ncnc23)c1C#N [Example 28, 4-Amino-quinazoline-8-carboxylic acid [2-cyano-6-fluoro-3-(propane-1-sulfonylamino)-phenyl]-amide] | – | 14.4 nM | 190.71 mm^3 | 176.38 mm^3 | 219.31 mm^3 | – | – | – |
| < 0.1 µM | 0.00114 µM | CCCS(=O)(=O)Nc1ccc(Cl)c(NC(=O)c2ccnc3c(N)ncnc23)c1F [Example 65, 4-Amino-pyrido[3,2-d]pyrimidine-8-carboxylic acid [6-chloro-2-fluoro-3-(propane-1-sulfonylamino)-phenyl]-amide] | – | 9.4 nM | – | – | – | – | – | – |
| < 0.1 µM | 0.00075 µM | Nc1ncnc2c(C(=O)Nc3c(F)ccc(NS(=O)(=O)CCCF)c3F)ccnc12 [Example 66, 4-Amino-pyrido[3,2-d]pyrimidine-8-carboxylic acid [2,6-difluoro-3-(3-fluoro-propane-1-sulfonylamino)-phenyl]-amide] | – | 3.04 nM | – | – | – | – | – | – |
